Experimental data published in patent US10780074B2, “Compounds and uses thereof” (Sunovion Pharmaceuticals Inc., priority 2017, dated 2020).
Structures can show the parent of a compound that is named as a salt. Where two headings read alike, the source gives them in different places.

Tested on: behaviors of compound-treated mice
Experiment: Neuropharmacological Assay (SmartCube)
Assay type: in vivo
Conditions: for minimal effective dose: Mus musculus, ip, 0.25 h, dose having 50% or more total activity in SmartCube, read-out: MED (minimal effective dose)
Method in brief: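 Mice dosed i.p. 15 min before testing, with compound in N-methyl-2-pyrrolidone/PEG/propylene glycol, were video-recorded and algorithmically compared with reference-drug behavioral signatures. This gave class-match probabilities (antidepressant, anxiolytic, etc.) at the most efficacious of 3 doses. MED was defined as the dose with ≥50% total activity, usually tested across 0.3–30 mpk.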

[1] = i.p. 15 min before behavioral test, most efficacious dose(s) of 3 doses
[2] = SmartCube, i.p. 15 min before test, most efficacious dose(s)

SMILES	minimal effective dose (i.p.) [mg/kg]	AD: ADHD (probability that activity matches class) [1]	AG: analgesic (probability that activity matches class) [1]	AX: anxiolytic (probability that activity matches class) [1]	CE: cognitive enhancer (probability that activity matches class) [1]	DP: anti-depressant (probability that activity matches class) [1]	MS: mood stabilizer (probability that activity matches class) [1]	PS: anti-psychotic (probability that activity matches class) [1]	SD: sedative hypnotic (probability that activity matches class) [1]	UN: uncharacterized CNS activity (probability that activity matches class) [1]	minimal effective dose [mg/kg]	AD: ADHD (probability that activity matches class) [2]	AG: analgesic (probability that activity matches class) [2]	AX: anxiolytic (probability that activity matches class) [2]	CE: cognitive enhancer (probability that activity matches class) [2]	DP: anti-depressant (probability that activity matches class) [2]	MS: mood stabilizer (probability that activity matches class) [2]	PS: anti-psychotic (probability that activity matches class) [2]	SD: sedative hypnotic (probability that activity matches class) [2]	UN: uncharacterized CNS activity (probability that activity matches class) [2]
NC[C@H]1OCCc2c(-c3ncco3)cccc21 [Compound 107, (S)-(5-(Oxazol-2-yl)isochroman-1-yl)methanamine hydrochloride salt]	10 to 30	+ (LOQ ≤ + <5%)	+ (LOQ ≤ + <5%)	+ (LOQ ≤ + <5%)	+ (LOQ ≤ + <5%)	+++ (25% ≤ +++ <50%)	+ (LOQ ≤ + <5%)	+ (LOQ ≤ + <5%)	+ (LOQ ≤ + <5%)	+ (LOQ ≤ + <5%)										
CNC[C@@H]1OCCc2cc(-c3ncccn3)ccc21 [Compound 21, (R)—N-Methyl-1-(6-(pyrimidin-2-yl)isochroman-1-yl)methanamine hydrochloride salt]	10 to 30	+ (LOQ ≤ + <5%)	++ (5% ≤ ++ <25%)	++ (5% ≤ ++ <25%)	++ (5% ≤ ++ <25%)	++ (5% ≤ ++ <25%)	+ (LOQ ≤ + <5%)	+ (LOQ ≤ + <5%)	+ (LOQ ≤ + <5%)	+ (LOQ ≤ + <5%)										
NC[C@H]1OCCc2ccc(-c3ccncc3)cc21 [Compound 48, (S)-(7-(pyridin-4-yl)isochroman-1-yl)methanamine hydrochloride]	3 to 10	+ (LOQ ≤ + <5%)	+ (LOQ ≤ + <5%)	++ (5% ≤ ++ <25%)	++ (5% ≤ ++ <25%)	+ (LOQ ≤ + <5%)	+ (LOQ ≤ + <5%)	++ (5% ≤ ++ <25%)	+++ (25% ≤ +++ <50%)	+++ (25% ≤ +++ <50%)										
CNCC1OCCc2c(-c3cncs3)cccc21 (stereo not shown) [Compound 52, N-Methyl-1-(5-(thiazol-5-yl)isochroman-1-yl)methanamine hydrochloride]	3 to 10	+ (LOQ ≤ + <5%)	+ (LOQ ≤ + <5%)	+ (LOQ ≤ + <5%)	+ (LOQ ≤ + <5%)	++++ (50% ≤ ++++)	+ (LOQ ≤ + <5%)	+ (LOQ ≤ + <5%)	+ (LOQ ≤ + <5%)	++ (5% ≤ ++ <25%)										
NC[C@H]1OCCc2c1cccc2-n1cccn1 [Compound 189, (S)-(5-(1H-pyrazol-1-yl)isochroman-1-yl)methanamine hydrochloride salt]											10 to 30	++ (5% ≤ ++ <25%)	+ (LOQ ≤ + <5%)	++ (5% ≤ ++ <25%)	+ (LOQ ≤ + <5%)	++ (5% ≤ ++ <25%)	+ (LOQ ≤ + <5%)	+ (LOQ ≤ + <5%)	+ (LOQ ≤ + <5%)	++++ (50% ≤ ++++)
CNC[C@H]1OCCc2ccc(-c3cccnc3)cc21 [Compound 4, (S)-N-methyl-1-(7-(pyridin-3-yl)isochroman-1-yl)methanamine dihydrochloride]	3 to 10	+ (LOQ ≤ + <5%)	+ (LOQ ≤ + <5%)	++ (5% ≤ ++ <25%)	+ (LOQ ≤ + <5%)	++ (5% ≤ ++ <25%)	+ (LOQ ≤ + <5%)	+++ (25% ≤ +++ <50%)	+ (LOQ ≤ + <5%)	++ (5% ≤ ++ <25%)										
CNC[C@H]1OCCc2c(-c3cc(C)nc(C)c3)cccc21 [Compound 125, (S)-1-(5-(2,6-dimethylpyridin-4-yl)isochroman-1-yl)-N-methylmethanamine dihydrochloride]	≤ 3	+ (LOQ ≤ + <5%)	+ (LOQ ≤ + <5%)	+ (LOQ ≤ + <5%)	+ (LOQ ≤ + <5%)	++++ (50% ≤ ++++)	+ (LOQ ≤ + <5%)	+ (LOQ ≤ + <5%)	+ (LOQ ≤ + <5%)	++++ (50% ≤ ++++)										
NC[C@H]1OCCc2c(-c3cncs3)cccc21 (single isomer, unassigned) [Compound 71, hydrochloride salt]	≤ 3	+++ (25% ≤ +++ <50%)	+ (LOQ ≤ + <5%)	++ (5% ≤ ++ <25%)	+ (LOQ ≤ + <5%)	++ (5% ≤ ++ <25%)	+ (LOQ ≤ + <5%)	+ (LOQ ≤ + <5%)	++ (5% ≤ ++ <25%)	++++ (50% ≤ ++++)										
CNC[C@H]1OCCc2c(-c3ccnc(C)c3)cccc21 (single isomer, unassigned) [Compound 121, hydrochloride salt]	≤ 3	++ (5% ≤ ++ <25%)	+ (LOQ ≤ + <5%)	++ (5% ≤ ++ <25%)	+ (LOQ ≤ + <5%)	++++ (50% ≤ ++++)	+ (LOQ ≤ + <5%)	+ (LOQ ≤ + <5%)	++ (5% ≤ ++ <25%)	+ (LOQ ≤ + <5%)										
CCNC[C@H]1OCCc2c(-c3ccncc3)cccc21 (single isomer, unassigned) [Compound 67, hydrochloride salt]	≤ 3	+ (LOQ ≤ + <5%)	+ (LOQ ≤ + <5%)	+ (LOQ ≤ + <5%)	+ (LOQ ≤ + <5%)	++++ (50% ≤ ++++)	+ (LOQ ≤ + <5%)	+ (LOQ ≤ + <5%)	+ (LOQ ≤ + <5%)	++ (5% ≤ ++ <25%)										
NC[C@H]1OCCc2c(-c3cnoc3)cccc21 (single isomer, unassigned) [Compound 87, hydrochloride salt]	≤ 3	++ (5% ≤ ++ <25%)	+ (LOQ ≤ + <5%)	++++ (50% ≤ ++++)	+ (LOQ ≤ + <5%)	++++ (50% ≤ ++++)	+ (LOQ ≤ + <5%)	+ (LOQ ≤ + <5%)	+ (LOQ ≤ + <5%)	+ (LOQ ≤ + <5%)										
CNC[C@H]1OCCc2c(-c3ncccn3)cccc21 [Compound 23, (S)—N-Methyl-1-(5-(pyrimidin-2-yl)isochroman-1-yl)methanamine hydrochloride salt]	10 to 30	++ (5% ≤ ++ <25%)	++ (5% ≤ ++ <25%)	++ (5% ≤ ++ <25%)	+ (LOQ ≤ + <5%)	++++ (50% ≤ ++++)	+ (LOQ ≤ + <5%)	+ (LOQ ≤ + <5%)	+ (LOQ ≤ + <5%)	+ (LOQ ≤ + <5%)										
NC[C@@H]1OCCc2c(-c3cnoc3)cccc21 (single isomer, unassigned) [Compound 86, hydrochloride salt]	3 to 10	+ (LOQ ≤ + <5%)	+ (LOQ ≤ + <5%)	++ (5% ≤ ++ <25%)	++ (5% ≤ ++ <25%)	++ (5% ≤ ++ <25%)	+ (LOQ ≤ + <5%)	++ (5% ≤ ++ <25%)	+ (LOQ ≤ + <5%)	+++ (25% ≤ +++ <50%)										
